One experiment deals with T1, Activin receptor type-1B (Homo sapiens, UniProt P36896).
T1 sequence (P36896 whole entry): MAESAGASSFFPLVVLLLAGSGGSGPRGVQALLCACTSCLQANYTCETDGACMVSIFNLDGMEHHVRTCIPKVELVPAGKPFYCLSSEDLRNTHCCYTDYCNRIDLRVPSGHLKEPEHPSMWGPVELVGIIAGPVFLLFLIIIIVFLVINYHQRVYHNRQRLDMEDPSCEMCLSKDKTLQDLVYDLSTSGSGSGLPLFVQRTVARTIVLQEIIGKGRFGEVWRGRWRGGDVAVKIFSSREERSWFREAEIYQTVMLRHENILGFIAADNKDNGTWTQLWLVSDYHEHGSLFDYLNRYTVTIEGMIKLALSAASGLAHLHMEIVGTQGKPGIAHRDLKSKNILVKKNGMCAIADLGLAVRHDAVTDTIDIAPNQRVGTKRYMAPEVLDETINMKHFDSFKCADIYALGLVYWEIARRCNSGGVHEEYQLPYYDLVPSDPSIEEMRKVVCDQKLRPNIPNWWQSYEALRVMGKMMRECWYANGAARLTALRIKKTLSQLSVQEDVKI

In experiment [1] the target is T2, AarF domain-containing protein kinase 1 (Homo sapiens, UniProt Q86TW2).
T2 sequence (Q86TW2 whole entry): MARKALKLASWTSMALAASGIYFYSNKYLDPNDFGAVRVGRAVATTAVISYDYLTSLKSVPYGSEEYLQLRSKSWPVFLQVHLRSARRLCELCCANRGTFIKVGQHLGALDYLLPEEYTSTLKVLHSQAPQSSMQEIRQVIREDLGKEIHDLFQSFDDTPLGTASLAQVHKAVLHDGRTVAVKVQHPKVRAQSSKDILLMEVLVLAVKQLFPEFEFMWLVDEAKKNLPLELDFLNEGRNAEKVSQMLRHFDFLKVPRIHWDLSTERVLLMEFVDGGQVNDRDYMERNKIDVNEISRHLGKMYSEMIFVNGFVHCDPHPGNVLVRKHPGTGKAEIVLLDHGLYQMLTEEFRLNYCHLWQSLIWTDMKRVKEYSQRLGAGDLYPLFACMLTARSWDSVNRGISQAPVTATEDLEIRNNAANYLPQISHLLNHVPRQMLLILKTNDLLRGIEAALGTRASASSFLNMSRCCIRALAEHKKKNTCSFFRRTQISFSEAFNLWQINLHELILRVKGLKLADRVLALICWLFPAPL

The target in experiment [2] is Bone morphogenetic protein receptor type-1A (Homo sapiens, UniProt P36894).
Chain of Bone morphogenetic protein receptor type-1A (P36894 whole entry): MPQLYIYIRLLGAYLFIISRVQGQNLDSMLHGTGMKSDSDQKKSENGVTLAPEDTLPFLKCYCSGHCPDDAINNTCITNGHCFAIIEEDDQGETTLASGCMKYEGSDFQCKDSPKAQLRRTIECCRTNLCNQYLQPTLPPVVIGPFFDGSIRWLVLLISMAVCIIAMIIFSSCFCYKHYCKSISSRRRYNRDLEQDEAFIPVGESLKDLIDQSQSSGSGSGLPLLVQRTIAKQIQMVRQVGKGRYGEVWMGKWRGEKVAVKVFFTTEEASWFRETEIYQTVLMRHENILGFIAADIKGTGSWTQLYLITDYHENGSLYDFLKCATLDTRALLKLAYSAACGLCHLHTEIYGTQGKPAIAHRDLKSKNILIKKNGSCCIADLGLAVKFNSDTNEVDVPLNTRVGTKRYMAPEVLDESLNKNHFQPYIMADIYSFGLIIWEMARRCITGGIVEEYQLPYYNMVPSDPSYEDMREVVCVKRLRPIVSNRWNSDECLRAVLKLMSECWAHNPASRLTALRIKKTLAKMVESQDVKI
For experiment [3], the target named is Mitotic checkpoint serine/threonine-protein kinase BUB1 (Homo sapiens, UniProt O43683).
In experiment [4] the target is Cyclin-dependent kinase 12 (Homo sapiens, UniProt Q9NYV4).
Chain of Cyclin-dependent kinase 12 (Q9NYV4 whole entry): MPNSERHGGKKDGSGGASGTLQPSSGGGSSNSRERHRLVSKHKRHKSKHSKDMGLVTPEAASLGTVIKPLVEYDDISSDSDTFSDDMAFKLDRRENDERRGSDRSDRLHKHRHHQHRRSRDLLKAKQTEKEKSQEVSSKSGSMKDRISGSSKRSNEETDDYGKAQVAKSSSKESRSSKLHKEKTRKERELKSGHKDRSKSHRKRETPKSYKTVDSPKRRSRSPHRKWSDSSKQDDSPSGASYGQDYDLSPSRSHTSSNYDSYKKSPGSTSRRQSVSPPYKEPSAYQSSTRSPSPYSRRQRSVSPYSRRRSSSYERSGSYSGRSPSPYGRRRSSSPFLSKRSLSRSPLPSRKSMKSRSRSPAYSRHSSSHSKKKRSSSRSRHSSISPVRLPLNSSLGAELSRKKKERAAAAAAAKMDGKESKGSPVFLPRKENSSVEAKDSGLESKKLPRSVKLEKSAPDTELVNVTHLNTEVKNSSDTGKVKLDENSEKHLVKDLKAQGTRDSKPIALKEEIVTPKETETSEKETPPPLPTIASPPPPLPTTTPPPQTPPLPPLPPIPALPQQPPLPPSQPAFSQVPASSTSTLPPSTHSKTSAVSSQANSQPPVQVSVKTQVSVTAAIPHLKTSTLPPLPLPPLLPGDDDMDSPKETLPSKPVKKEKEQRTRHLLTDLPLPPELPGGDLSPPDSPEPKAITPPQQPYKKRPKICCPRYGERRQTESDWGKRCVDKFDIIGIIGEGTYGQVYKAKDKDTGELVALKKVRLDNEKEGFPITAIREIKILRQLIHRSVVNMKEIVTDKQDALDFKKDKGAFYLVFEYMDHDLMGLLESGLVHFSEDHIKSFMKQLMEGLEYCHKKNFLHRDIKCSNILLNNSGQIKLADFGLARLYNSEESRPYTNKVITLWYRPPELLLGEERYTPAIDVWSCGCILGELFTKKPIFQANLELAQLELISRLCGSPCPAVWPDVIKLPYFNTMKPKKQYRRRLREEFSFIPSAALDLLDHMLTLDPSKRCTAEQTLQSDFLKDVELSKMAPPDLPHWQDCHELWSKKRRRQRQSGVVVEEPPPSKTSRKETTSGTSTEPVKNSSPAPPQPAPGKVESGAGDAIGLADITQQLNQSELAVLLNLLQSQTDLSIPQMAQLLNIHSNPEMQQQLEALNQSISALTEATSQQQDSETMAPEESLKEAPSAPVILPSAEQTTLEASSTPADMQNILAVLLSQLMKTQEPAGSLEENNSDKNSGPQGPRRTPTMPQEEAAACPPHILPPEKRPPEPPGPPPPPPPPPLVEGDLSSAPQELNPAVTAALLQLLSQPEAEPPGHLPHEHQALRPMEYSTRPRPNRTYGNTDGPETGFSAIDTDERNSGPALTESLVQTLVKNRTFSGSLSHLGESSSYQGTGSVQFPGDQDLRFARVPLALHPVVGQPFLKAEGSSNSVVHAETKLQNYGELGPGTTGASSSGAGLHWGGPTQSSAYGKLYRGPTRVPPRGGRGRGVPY
The next experiment has as its target Deoxycytidine kinase (Homo sapiens, UniProt P27707).
For experiment [5], the target named is Dual specificity tyrosine-phosphorylation-regulated kinase 1A (Homo sapiens, UniProt Q13627).
For another experiment, the target named is T3, Ephrin type-B receptor 3 (Homo sapiens, UniProt P54753).
T3 sequence (P54753 whole entry): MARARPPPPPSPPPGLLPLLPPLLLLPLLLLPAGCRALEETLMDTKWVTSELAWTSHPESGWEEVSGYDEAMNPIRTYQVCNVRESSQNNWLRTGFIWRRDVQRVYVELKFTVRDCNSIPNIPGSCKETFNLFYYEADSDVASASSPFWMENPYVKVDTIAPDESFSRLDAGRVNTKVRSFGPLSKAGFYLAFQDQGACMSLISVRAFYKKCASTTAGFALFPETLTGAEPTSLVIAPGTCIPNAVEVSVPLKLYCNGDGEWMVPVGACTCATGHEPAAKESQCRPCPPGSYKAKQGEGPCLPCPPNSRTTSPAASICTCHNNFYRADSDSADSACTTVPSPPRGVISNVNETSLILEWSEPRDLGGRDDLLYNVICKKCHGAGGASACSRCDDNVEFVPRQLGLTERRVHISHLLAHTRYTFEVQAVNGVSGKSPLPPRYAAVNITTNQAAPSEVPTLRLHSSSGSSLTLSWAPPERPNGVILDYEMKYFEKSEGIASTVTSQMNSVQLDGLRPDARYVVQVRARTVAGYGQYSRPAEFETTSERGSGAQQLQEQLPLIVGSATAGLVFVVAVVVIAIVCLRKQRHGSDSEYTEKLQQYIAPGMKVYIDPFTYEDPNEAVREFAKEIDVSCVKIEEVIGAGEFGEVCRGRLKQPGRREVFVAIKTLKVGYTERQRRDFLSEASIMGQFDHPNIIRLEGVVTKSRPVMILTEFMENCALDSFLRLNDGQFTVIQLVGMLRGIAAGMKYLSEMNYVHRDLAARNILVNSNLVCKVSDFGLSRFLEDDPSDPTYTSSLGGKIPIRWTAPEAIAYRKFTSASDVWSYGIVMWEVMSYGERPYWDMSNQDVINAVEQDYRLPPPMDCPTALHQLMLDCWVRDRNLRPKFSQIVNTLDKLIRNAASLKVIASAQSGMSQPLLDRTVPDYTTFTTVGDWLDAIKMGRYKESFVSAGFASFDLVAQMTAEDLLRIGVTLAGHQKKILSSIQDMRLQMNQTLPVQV

For experiment [6], the target named is Guanine nucleotide-binding protein G(i) subunit alpha-2 (Homo sapiens, UniProt P04899).
Chain of Guanine nucleotide-binding protein G(i) subunit alpha-2 (P04899 whole entry): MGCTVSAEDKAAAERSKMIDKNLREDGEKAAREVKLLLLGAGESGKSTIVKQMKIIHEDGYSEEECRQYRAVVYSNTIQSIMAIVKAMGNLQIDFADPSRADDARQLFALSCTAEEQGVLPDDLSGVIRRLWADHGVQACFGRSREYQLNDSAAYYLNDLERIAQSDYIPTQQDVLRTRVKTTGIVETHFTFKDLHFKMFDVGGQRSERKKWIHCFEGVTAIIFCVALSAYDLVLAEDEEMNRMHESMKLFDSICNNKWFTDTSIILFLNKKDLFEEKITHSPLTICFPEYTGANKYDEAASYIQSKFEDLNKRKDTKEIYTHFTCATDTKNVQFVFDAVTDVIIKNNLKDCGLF
For experiment [7], the target named is Mitogen-activated protein kinase 8 (Homo sapiens, UniProt P45983).
Chain of Mitogen-activated protein kinase 8 (P45983 whole entry): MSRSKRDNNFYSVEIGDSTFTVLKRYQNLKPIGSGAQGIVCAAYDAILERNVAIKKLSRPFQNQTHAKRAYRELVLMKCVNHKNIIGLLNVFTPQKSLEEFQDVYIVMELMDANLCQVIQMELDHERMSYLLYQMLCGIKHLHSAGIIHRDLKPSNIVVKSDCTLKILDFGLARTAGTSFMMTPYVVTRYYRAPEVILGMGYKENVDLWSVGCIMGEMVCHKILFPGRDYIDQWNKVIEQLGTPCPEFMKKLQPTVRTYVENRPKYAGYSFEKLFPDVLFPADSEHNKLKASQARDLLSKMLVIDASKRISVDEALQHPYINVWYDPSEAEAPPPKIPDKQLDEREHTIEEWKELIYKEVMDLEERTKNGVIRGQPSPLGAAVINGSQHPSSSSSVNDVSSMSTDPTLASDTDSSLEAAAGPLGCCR
Experiment [8] has as its target MAP kinase-activated protein kinase 2 (Homo sapiens, UniProt P49137).
For experiment [9], the target named is Ribosomal protein S6 kinase alpha-5 (Homo sapiens, UniProt O75582).
Chain of Ribosomal protein S6 kinase alpha-5 (O75582 whole entry): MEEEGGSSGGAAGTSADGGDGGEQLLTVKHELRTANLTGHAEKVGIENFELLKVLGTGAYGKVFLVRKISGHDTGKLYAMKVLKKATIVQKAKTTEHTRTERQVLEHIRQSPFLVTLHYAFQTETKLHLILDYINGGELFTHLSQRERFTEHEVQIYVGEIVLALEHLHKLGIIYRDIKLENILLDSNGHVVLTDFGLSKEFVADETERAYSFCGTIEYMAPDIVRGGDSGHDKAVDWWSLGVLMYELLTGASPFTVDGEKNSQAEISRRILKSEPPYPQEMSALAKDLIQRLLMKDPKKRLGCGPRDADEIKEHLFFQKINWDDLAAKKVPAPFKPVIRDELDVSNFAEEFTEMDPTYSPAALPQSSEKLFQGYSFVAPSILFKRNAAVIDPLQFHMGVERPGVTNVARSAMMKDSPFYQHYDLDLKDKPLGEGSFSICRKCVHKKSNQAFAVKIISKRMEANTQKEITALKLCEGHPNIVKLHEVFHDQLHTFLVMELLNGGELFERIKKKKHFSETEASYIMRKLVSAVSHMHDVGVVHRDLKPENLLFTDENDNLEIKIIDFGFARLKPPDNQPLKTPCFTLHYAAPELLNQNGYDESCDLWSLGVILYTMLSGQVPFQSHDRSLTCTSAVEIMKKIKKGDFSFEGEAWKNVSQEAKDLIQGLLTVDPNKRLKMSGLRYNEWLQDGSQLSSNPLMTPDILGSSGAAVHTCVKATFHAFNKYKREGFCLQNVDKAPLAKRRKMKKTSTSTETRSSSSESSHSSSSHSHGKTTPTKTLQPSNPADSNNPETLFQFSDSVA
Experiment [10] has as its target T4, Uncharacterized protein FLJ45252 (Homo sapiens, UniProt Q6ZSR9).
T4 sequence (Q6ZSR9 whole entry): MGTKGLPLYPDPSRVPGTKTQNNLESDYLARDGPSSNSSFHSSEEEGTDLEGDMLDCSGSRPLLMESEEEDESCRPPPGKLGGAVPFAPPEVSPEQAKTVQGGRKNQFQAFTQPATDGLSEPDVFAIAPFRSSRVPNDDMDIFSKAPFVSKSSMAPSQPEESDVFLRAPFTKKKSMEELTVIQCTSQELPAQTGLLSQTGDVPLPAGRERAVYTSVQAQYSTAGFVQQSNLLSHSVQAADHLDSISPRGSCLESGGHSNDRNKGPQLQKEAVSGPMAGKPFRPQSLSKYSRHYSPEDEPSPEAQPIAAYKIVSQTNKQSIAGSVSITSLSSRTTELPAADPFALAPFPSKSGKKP
The note with it: read-out: Kd apparent; k-562, colo 205, sk-n-be(2) and mv-4-11.

Active and inactive are the calls of the source. Cut-off read from the data, not from the text of the source, for most assays here: actives have a measured Kd and inactives only a lower limit.
Note: in the data inactive means no Kd found up to 30 µM.

Chain of Deoxycytidine kinase (P27707 whole entry): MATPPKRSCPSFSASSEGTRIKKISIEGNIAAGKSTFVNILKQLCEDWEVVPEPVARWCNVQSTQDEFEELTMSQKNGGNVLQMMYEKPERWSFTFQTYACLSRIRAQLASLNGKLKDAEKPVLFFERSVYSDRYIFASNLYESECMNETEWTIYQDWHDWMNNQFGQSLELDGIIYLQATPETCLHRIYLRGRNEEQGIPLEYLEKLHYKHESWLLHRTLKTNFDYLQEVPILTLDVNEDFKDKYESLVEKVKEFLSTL
Chain of MAP kinase-activated protein kinase 2 (P49137 whole entry): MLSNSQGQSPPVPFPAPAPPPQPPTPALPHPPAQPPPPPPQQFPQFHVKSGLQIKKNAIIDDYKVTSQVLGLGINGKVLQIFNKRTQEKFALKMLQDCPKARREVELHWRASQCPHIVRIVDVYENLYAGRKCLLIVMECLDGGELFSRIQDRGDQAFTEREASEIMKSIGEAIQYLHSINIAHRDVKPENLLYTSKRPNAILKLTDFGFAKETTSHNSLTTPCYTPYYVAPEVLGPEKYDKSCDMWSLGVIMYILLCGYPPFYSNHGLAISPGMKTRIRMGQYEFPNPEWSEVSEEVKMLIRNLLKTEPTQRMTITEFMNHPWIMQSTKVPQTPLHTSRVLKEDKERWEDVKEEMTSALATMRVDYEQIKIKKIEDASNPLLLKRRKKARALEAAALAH

Take `O=C(Nc1cc(C(F)(F)F)cc(C(F)(F)F)c1)c1cc(Cl)ccc1O` [IMD-0354]: the Kd (on Activin receptor type-1B; in experiment [1]; in experiment [2]; in [3]; in [4]; at Deoxycytidine kinase) was > 30 µM (inactive) throughout. Moreover, the Kd (in experiment [5]; on Ephrin type-B receptor 3; in experiment [6]; in experiment [7]; in experiment [8]; in experiment [9]) was > 30 µM (inactive) throughout. The Kd in [10] was > 30 µM (inactive).
As to `CNC(=O)c1cccc2cc(Oc3ccnc4cc(OCC5(N)CC5)c(OC)cc34)ccc12` [LUCITANIB], the Kd (on Activin receptor type-1B; in experiment [1]; in [2]; in experiment [3]; in experiment [4]; on Deoxycytidine kinase) was > 30 µM (inactive) in each case. The Kd (in experiment [5]; on Ephrin type-B receptor 3; in [6]; in experiment [7]; in [8]; in experiment [9]) was > 30 µM (inactive) throughout. For the same molecule, the Kd in experiment [10] is > 30 µM (inactive).
Consider `CN(C[C@@H]1COCCO1)S(=O)(=O)Nc1ccc2ccc3ncc(-c4cnn(C)c4)cc3c(=O)c2c1` [MK-2461], for which the Kd (on Activin receptor type-1B; in experiment [1]; in experiment [2]; in [3]; in experiment [4]; at Deoxycytidine kinase) was > 30 µM (inactive) in each case. Moreover, the Kd (in experiment [5]; at Ephrin type-B receptor 3; in experiment [6]; in experiment [7]; in experiment [8]; in [9]) was > 30 µM (inactive) in each case. The Kd in experiment [10] is 2.59 µM (active).
Regarding `Cn1cc(-c2cnc3ccc4ccc(CS(=O)(=O)NCc5ccccn5)cc4c(=O)c3c2)cn1` [MK-8033], the Kd (at Activin receptor type-1B; in experiment [1]; in [2]; in [3]; in experiment [4]; at Deoxycytidine kinase) was > 30 µM (inactive) each time. Moreover, the Kd (in experiment [5]; on Ephrin type-B receptor 3; in [6]; in experiment [7]; in experiment [8]; in [9]) was > 30 µM (inactive) in each case. For the same molecule, the Kd in experiment [10] was > 30 µM (inactive).
Consider `FC(F)(F)c1ccc(/C=C/c2nc(COc3ccc(CCCCn4ccnn4)cc3)co2)cc1` [MUBRITINIB], for which the Kd (at Activin receptor type-1B; in experiment [1]; in experiment [2]; in [3]; in experiment [4]; on Deoxycytidine kinase) was > 30 µM (inactive) in each case. Moreover, the Kd (in experiment [5]; at Ephrin type-B receptor 3; in experiment [6]; in [7]; in [8]; in [9]) was > 30 µM (inactive) throughout. The Kd in experiment [10] was > 30 µM (inactive).
Consider `CCOc1cc2ncc(C#N)c(Nc3ccc(F)c(Cl)c3)c2cc1NC(=O)/C=C/CN(C)C` [PELITINIB], for which the Kd (on Activin receptor type-1B; in [1]; in experiment [2]; in [3]; in experiment [4]; on Deoxycytidine kinase) was > 30 µM (inactive) each time. Moreover, the Kd (in experiment [5]; at Ephrin type-B receptor 3; in experiment [6]; in [7]; in experiment [8]; in experiment [9]) was > 30 µM (inactive) each time. Besides, the Kd in experiment [10] is > 30 µM (inactive).
For the molecule `Cc1nc(Nc2n[nH]c3c2CN(C(=O)N[C@H](CN(C)C)c2ccccc2)C3(C)C)c2sccc2n1` [PF-03758309], the Kd (at Activin receptor type-1B; in experiment [1]; in experiment [2]; in [3]; in [4]; at Deoxycytidine kinase) was > 30 µM (inactive) in each case. Besides, the Kd in experiment [5] is > 30 µM (inactive); on Ephrin type-B receptor 3 it was > 30 µM (inactive); in experiment [6], > 30 µM (inactive); in [7], > 30 µM (inactive); in experiment [8], > 30 µM (inactive); in experiment [9], 30 µM (active). For the same molecule, the Kd in experiment [10] was 2.72 µM (active).
For the molecule `Cc1cnc(NC(=O)Nc2cc(Br)c(C)cc2OC[C@@H]2CNCCO2)cn1` [RABUSERTIB], the Kd (on Activin receptor type-1B; in experiment [1]; in experiment [2]; in experiment [3]; in experiment [4]; on Deoxycytidine kinase) was > 30 µM (inactive) throughout. Moreover, the Kd (in experiment [5]; on Ephrin type-B receptor 3; in [6]; in [7]; in [8]; in experiment [9]) was > 30 µM (inactive) in each case. Further, the Kd in [10] was > 30 µM (inactive).
